For series [1], the target named is T1, Renin (Homo sapiens, UniProt P00797).
T1 sequence (P00797 whole entry): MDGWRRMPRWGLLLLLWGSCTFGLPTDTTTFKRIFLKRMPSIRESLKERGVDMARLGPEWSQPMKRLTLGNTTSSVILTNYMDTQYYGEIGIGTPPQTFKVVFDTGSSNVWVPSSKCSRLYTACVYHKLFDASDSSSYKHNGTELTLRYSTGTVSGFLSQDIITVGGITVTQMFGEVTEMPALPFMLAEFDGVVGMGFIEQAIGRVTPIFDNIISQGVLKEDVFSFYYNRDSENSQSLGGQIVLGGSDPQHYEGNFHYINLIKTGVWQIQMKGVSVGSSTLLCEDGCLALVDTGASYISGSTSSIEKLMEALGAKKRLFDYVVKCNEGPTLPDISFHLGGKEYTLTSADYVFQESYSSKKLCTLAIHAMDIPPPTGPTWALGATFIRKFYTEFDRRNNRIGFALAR

The nature of series [2]: Apparent permeability from apical to basolateral side of human Caco2 cells at 20 uM after 2 hrs. To be noted: Caco-2. For orientation: Caco-2 monolayers are a common model of the intestinal barrier.
Series [3] concerns the target T1, Renin. Kind of series: Inhibition of human recombinant renin using dabcyl-gamma-Abu-Ile-His-Pro-Phe-His-Leu-Val-Ile-His-Thr-EDANS as substrate preincubated for 30 mins after measured after 30 mins by fluorescence assay in presence of C57BL/6 mouse plasma.
Series [4] deals with T1, Renin. Briefly: Inhibition of human recombinant renin using dabcyl-gamma-Abu-Ile-His-Pro-Phe-His-Leu-Val-Ile-His-Thr-EDANS as substrate preincubated for 30 mins after measured after 30 mins by fluorescence assay in presence of human plasma.

pIC50: −log10 of the molar value. Where only a bound is given, the exact number is not on record here.

A word on the pIC50: it is the IC50 on a negative log10 scale, so that one unit is a factor of ten. The Papp A→B is how fast a substance crosses the layer from the apical side.

Consider `Cc1ccc(C)c(Oc2c(C(=O)N3CCNCC3)c3ncccc3n2-c2ccccc2)c1`, for which the pIC50 in series [1] is 6.16.

With `O=C(c1c(Oc2ccccc2F)n(-c2ccccc2)c2cccnc12)N1CCNCC1`, the pIC50 in series [1] was 6.29. On the same count and under the same terms, with `O=C(c1c(Oc2cccc(F)c2F)n(-c2ccccc2)c2cccnc12)N1CCNCC1` the figure was 6.51. In series [1], `O=C(c1c(Oc2cc(F)ccc2F)n(-c2ccccc2)c2cccnc12)N1CCNCC1` showed a pIC50 of 6.69. Regarding `Cc1cccc(F)c1Oc1c(C(=O)N2CCNCC2)c2ncccc2n1-c1ccccc1`, in series [1], the pIC50 was 7.13. For `Cc1c(F)cccc1Oc1c(C(=O)N2CCNCC2)c2ncccc2n1-c1ccccc1`, in series [1], the negative logarithm of the IC50 (pIC50) was 7.24. Same read-out and setting: with `Cc1ccc(F)cc1Oc1c(C(=O)N2CCNCC2)c2ncccc2n1-c1ccccc1` the figure was 7.62; with `O=C(c1c(Oc2cc(F)ccc2Cl)n(-c2ccccc2)c2cccnc12)N1CCNCC1`, 7.26. In turn, `Cc1cc(F)c(F)cc1Oc1c(C(=O)N2CCNCC2)c2ncccc2n1-c1ccccc1` showed a pIC50 in series [1] of 6.49. Consider `Cc1c(F)cc(F)cc1Oc1c(C(=O)N2CCNCC2)c2ncccc2n1-c1ccccc1`, for which the pIC50 in series [1] is 6.97.

On to `Cc1cccc(C)c1Oc1c(C(=O)N2CCNCC2)c2ncccc2n1-c1ccccc1`, for which the Papp A→B at 2 h, 20 µM in series [2] worked out at 0.28 ×10⁻⁶ cm/s. The pIC50 in series [3] is 7.82; in series [1] it was 7.85; in series [4] it was 7.52. Consider `Cc1ccc(F)c(C)c1Oc1c(C(=O)N2CCNCC2)c2ncccc2n1-c1ccccc1`, for which the Papp A→B at 2 h, 20 µM in series [2] came to 4.3 ×10⁻⁶ cm/s. The pIC50 in series [3] was 7.44; in series [1], 8.89. Turning to `Cc1cccc(C)c1Sc1c(C(=O)N2CCNCC2)c2ncccc2n1-c1ccccc1`, the pIC50 in series [1] is 7.21. On the same count and under the same terms, for `O=C(c1c(Cc2ccccc2)n(-c2ccccc2)c2cccnc12)N1CCNCC1` the value was 6.03; for `O=C(c1c(Cc2cccc(F)c2F)n(-c2ccccc2)c2cccnc12)N1CCNCC1`, 5.84.

Consider `Cc1cc(F)cc(C)c1Cc1c(C(=O)N2CCNCC2)c2ncccc2n1-c1ccccc1`, for which, in series [1], the pIC50 was 6.61. In series [1], `Cc1c(F)cccc1Cc1c(C(=O)N2CCNCC2)c2ncccc2n1-c1ccccc1` gave a pIC50 of 7.92. For the compound `Cc1cccc(C)c1Oc1c(C(=O)N2CCNCC2)c2ncccc2n1C1CCCCC1`, the pIC50 in series [1] was 8.40.

Consider `Cc1cccc(C)c1Oc1c(C(=O)N2CCN[C@@H](C)C2)c2ncccc2n1C1CCCCC1`, for which, in series [1], the pIC50 was 7.10. On the same count and under the same terms, with `Cc1cccc(C)c1Oc1c(C(=O)N2CCN[C@@H](C)C2)c2ncccc2n1-c1ccccc1` the figure was 7.22.

`Cc1cccc(C)c1Oc1c(C(=O)N2CCN[C@@H](CO)C2)c2ncccc2n1C1CCCCC1` had a pIC50 in series [1] of 6.41. As to `Cc1cccc(C)c1Oc1c(C(=O)N2CCN[C@@H](CO)C2)c2ncccc2n1-c1ccccc1`, the pIC50 in series [1] is 6.84. Same read-out and setting: for `COC[C@H]1CN(C(=O)c2c(Oc3c(C)cccc3C)n(C3CCCCC3)c3cccnc23)CCN1` the value was 6.16; for `CC[C@H]1CN(C(=O)c2c(Oc3c(C)cccc3C)n(-c3ccccc3)c3cccnc23)CCN1`, 6.34; for `CCC[C@H]1CN(C(=O)c2c(Oc3c(C)cccc3C)n(-c3ccccc3)c3cccnc23)CCN1`, 5.93. The compound `Cc1cccc(C)c1Oc1c(C(=O)N2CCN[C@@H](C(C)C)C2)c2ncccc2n1-c1ccccc1` showed a pIC50 in series [1] of 5.57. Turning to `Cc1cccc(C)c1Oc1c(C(=O)N2CCNC[C@@H]2Cc2ccccc2)c2ncccc2n1-c1ccccc1`, in series [1], the pIC50 was 6.82.

`COc1ccc2c(n1)c(C(=O)N1CCNCC1)c(Oc1cc(F)ccc1C)n2-c1ccccc1`: the pIC50 in series [1] was 5.18. Same read-out and setting: with `Cc1ccc(F)cc1Oc1c(C(=O)N2CCNCC2)c2nc(O)ccc2n1-c1ccccc1` the figure was < 5.30.

In series [1], `Cc1cnc2c(C(=O)N3CCNCC3)c(Oc3cc(F)ccc3C)n(-c3ccccc3)c2c1` gave a pIC50 of 7.85. With `Cc1cccc(C)c1Oc1c(C(=O)N2CCNCC2)c2ncc(O)cc2n1-c1ccccc1`, the pIC50 in series [1] was 8.52. Regarding `CCOc1cnc2c(C(=O)N3CCNCC3)c(Oc3c(C)cccc3C)n(-c3ccccc3)c2c1`, the pIC50 in series [1] is 7.10. `Cc1cnc2c(C(=O)N3CCNCC3)c(Cc3cccc(F)c3C)n(-c3ccccc3)c2c1`: the pIC50 in series [1] was 8.05. Same read-out and setting: with `COc1ccc2c(n1)c(C(=O)N1CCNCC1)c(Cc1cccc(F)c1C)n2-c1ccccc1` the figure was 6.23. In series [1], `Cc1c(F)cccc1Cc1c(C(=O)N2CCNCC2)c2nc(O)ccc2n1-c1ccccc1` showed a pIC50 of 5.80.

`Cc1ccccc1Oc1c(C(=O)N2CCNCC2)c2ccncc2n1-c1ccccc1`: in series [1], the pIC50 is 6.31. Take `Cc1ccc(F)cc1Oc1c(C(=O)N2CCNCC2)c2ccncc2n1-c1ccccc1`: in series [1], the pIC50 is 7.57. On the same count and under the same terms, with `Cc1cccc(C)c1Oc1c(C(=O)N2CCNCC2)c2ccncc2n1-c1ccccc1` the figure was 6.95.

In series [1], `Cc1ccc(F)c(C)c1Oc1c(C(=O)N2CCNCC2)c2ccncc2n1-c1ccccc1` showed a pIC50 of 8.70.

`O=C(c1c(Cc2ccccc2)n(-c2ccccc2)c2cnccc12)N1CCNCC1` gave a pIC50 in series [1] of 6.12. For `Cc1c(F)cccc1Cc1c(C(=O)N2CCNCC2)c2ccncc2n1-c1ccccc1`, the Papp A→B at 2 h, 20 µM in series [2] was found to be 1.27 ×10⁻⁶ cm/s. In addition, the pIC50 in series [3] is 7.59; in series [1] it was 7.85; in series [4] it was 7.60. Take `CCc1nccc2c(C(=O)N3CCNCC3)c(Oc3cc(F)ccc3C)n(-c3ccccc3)c12`: in series [1], the pIC50 was 6.37. Consider `Cc1ccc(F)cc1Oc1c(C(=O)N2CCNCC2)c2ccnc(Cc3ccccc3)c2n1-c1ccccc1`, for which the Papp A→B at 2 h, 20 µM in series [2] is 3.9 ×10⁻⁶ cm/s. The figures for the negative-log IC50 (pIC50) in series [3] and in series [4] were 6.72 and 6.65, respectively. `Cc1cccc(C)c1Oc1c(C(=O)N2CCNCC2)c2ccnc(Cl)c2n1-c1ccccc1`: in series [1], the pIC50 was 6.29. On to `Cc1c(F)cccc1Cc1nccc2c(C(=O)N3CCNCC3)c(Cc3cccc(F)c3C)n(-c3ccccc3)c12`, for which, in series [1], the negative-log IC50 (pIC50) is 8.30. `CCCCC1CN(C(=O)c2c(Oc3c(C)cccc3C)n(-c3ccccc3)c3cccnc23)CCN1` (racemic) showed a pIC50 in series [1] of 6.55.

The values above are taken from ChEMBL document CHEMBL1821686, “Structure-based optimization of potent 4- and 6-azaindole-3-carboxamides as renin inhibitors” (Bioorg Med Chem Lett, 2011).
